Measurements taken from patent US7029857B1, “Processes for obtaining compounds employing SNORF72 receptors” (H. Lundbeck A/S, priority 1999, dated 2006).
Several values for one entry are separate records, joined by “and”; a condition that tells them apart may be missing. Equal entries are not always repeated. No end group written: not given here.

How the values were obtained:
[1] = target: T1, SNORF62 (Homo sapiens, UniProt Q9HB89); experiment: Saturation binding of radioligands to SNORF62-transfected COS-7 membranes; set-up: The SNORF62 cDNA codes for a protein of 426 amino acids; expressed in transfected cells; host or cells: COS-7 (transient, DEAE-dextran); details: two values n=2
T1 sequence (Q9HB89 1-426): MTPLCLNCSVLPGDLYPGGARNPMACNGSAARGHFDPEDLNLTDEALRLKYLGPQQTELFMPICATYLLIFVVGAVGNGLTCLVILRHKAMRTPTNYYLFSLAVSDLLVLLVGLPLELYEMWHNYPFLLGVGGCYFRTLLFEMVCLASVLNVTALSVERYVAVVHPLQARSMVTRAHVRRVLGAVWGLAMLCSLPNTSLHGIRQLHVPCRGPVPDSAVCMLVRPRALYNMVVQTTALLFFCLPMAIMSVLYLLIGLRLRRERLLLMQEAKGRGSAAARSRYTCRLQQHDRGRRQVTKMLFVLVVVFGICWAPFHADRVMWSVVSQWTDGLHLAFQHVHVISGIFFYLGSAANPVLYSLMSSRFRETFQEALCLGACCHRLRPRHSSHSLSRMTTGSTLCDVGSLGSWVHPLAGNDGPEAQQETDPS
Experimental: COS-7 cells were transiently transfected with SNORF62 and membranes were prepared as described in Materials and Methods. […] Results are representative of 2 experiments performed in duplicate.
(§1) Cell membranes expressing the receptor protein of this invention are useful for certain types of assays including but not restricted to ligand binding assays, GTP-γ-S binding assays, and others. The specifics of preparing such cell membranes may in some cases be determined by the nature of the ensuing assay but typically involve harvesting whole cells and disrupting the cell pellet by sonication in ice cold buffer (e.g. 20 mM Tris HCl, mM EDTA, pH 7.4 at 4° C.). The resulting crude cell lysate is cleared of cell debris by low speed centrifugation at 200×g for 5 min at 4° C. […] Protein concentrations are determined by the method of Bradford (1976) using bovine serum albumin as a standard. […]
(§2) Radioligand binding assays were performed by diluting membranes prepared from cells expressing the receptor in 50 mM Tris buffer (pH=7.4 at 0° C.) containing 0.1% bovine serum albumin (Sigma), aprotinin (0.005 mg/ml, Boehringer Mannheim) and bestatin (0.1 mM, Sigma) as protease inhibitors. […] After addition of Ready Safe (Beckman) scintillation fluid, bound radioactivity was quantitated using a Trilux (Wallac) scintillation counter (approximately 40% counting efficiency of bound counts). […]

[2] = target: T2, SNORF72 (Homo sapiens, UniProt Q9GZQ4, A395T); experiment: Saturation binding of radioligands to SNORF72-transfected COS-7 membranes; details: two values n=2
T2 construct: expressed in transfected cells; host or cells: COS-7 (transient, DEAE-dextran)
T2 sequence (Q9GZQ4 whole entry A395T): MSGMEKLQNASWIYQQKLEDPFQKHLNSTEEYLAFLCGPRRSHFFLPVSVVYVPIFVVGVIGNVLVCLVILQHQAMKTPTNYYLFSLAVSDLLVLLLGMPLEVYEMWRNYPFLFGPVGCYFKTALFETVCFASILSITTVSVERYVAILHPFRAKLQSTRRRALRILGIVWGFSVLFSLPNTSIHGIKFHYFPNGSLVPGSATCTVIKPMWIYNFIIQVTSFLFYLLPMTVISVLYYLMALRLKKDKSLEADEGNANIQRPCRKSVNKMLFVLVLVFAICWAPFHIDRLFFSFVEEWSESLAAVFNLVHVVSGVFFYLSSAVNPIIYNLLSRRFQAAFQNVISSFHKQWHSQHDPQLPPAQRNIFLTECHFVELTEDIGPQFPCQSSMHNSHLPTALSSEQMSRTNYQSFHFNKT
Experimental: COS-7 cells were transiently transfected with SNORF72 and membranes were prepared as described in Materials and Methods. […] Results presented are representative of 2 experiments performed in duplicate.
as §1, §2

[3] = tested on: isolated rat uterus preparations; details: read-out: EC50 concentration for contraction; cited from earlier work
[4] = target: T3, rat SNORF72 (Rattus norvegicus, UniProt Q9ESQ4); experiment: Intracellular Ca2+ release (FLIPR) in rat SNORF72-transfected COS-7 cells; type: cell-based; details: FIG. 22 at 100 nM
T3 construct: corresponding to a predicted protein of 395 amino acids; expressed in transfected cells; host or cells: COS-7 (transient)
T3 sequence (Q9ESQ4 whole entry): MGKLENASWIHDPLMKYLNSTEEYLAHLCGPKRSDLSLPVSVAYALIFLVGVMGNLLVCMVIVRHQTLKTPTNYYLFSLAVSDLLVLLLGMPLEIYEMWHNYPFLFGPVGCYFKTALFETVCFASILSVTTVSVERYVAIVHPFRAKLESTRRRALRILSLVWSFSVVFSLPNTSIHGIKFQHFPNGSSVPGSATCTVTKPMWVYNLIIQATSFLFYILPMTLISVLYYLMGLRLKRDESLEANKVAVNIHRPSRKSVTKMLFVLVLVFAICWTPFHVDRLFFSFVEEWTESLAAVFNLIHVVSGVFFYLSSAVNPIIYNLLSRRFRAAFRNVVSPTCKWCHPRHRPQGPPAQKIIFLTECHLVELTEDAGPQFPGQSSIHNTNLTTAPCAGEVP
Experimental: A typical protocol for the DEAE-dextran method as applied to COS-7 and HEK293 cells is described as follows. Cells to be used for transfection are split 24 hours prior to the transfection to provide flasks which are 70–80% confluent at the time of transfection. Briefly, 8 μg of receptor DNA plus 8 μg of any additional DNA needed (e.g. Gα protein expression vector, reporter construct, antibiotic resistance marker, mock vector, etc.) are added to 9 ml of complete DMEM plus DEAE-dextran mixture (10 mg/ml in PBS). Cells plated into a T225 flask (sub-confluent) are washed once with PBS and the DNA mixture is added to each flask. The cells are allowed to incubate for 30 minutes at 37° C., 5% CO2. Following the incubation, 36 ml of complete DMEM with 80 μM chloroquine is added to each flask and allowed to incubate an additional 3 hours. […]
In another method, the measurement of intracellular Ca^2+ can also be performed on a 96-well (or higher) format and with alternative Ca^2+-sensitive indicators, preferred examples of these are: aequorin, Fluo-3, Fluo-4, Fluo-5, Calcium Green-1, Oregon Green, and 488 BAPTA. After activation of the receptors with agonist ligands the emission elicited by the change of intracellular Ca^2+ concentration can be measured by a luminometer, or a fluorescence imager; a preferred example of this is the fluorescence imager plate reader (FLIPR™, Molecular Devices). […]

[5] = tested on: isolated rat inner adrenocortical cells; details: absence of medullary cells; cited from earlier work
[6] = target: T2, SNORF72; experiment: Intracellular Ca2+ release (FLIPR) in SNORF72-transfected COS-7 cells; type: cell-based; details: SNORF72-transfected COS-7 cells, peptides at 300 nM (FIG. 8)
Experimental: (§3) A typical protocol for the DEAE-dextran method as applied to COS-7 and HEK293 cells is described as follows. Cells to be used for transfection are split 24 hours prior to the transfection to provide flasks which are 70–80% confluent at the time of transfection. Briefly, 8 μg of receptor DNA plus 8 μg of any additional DNA needed (e.g. Gα protein expression vector, reporter construct, antibiotic resistance marker, mock vector, etc.) are added to 9 ml of complete DMEM plus DEAE-dextran mixture (10 mg/ml in PBS). Cells plated into a T225 flask (sub-confluent) are washed once with PBS and the DNA mixture is added to each flask. The cells are allowed to incubate for 30 minutes at 37° C., 5% CO2. Following the incubation, 36 ml of complete DMEM with 80 μM chloroquine is added to each flask and allowed to incubate an additional 3 hours. The medium is then aspirated and 24 ml of complete medium containing 10% DMSO for exactly 2 minutes and then aspirated. The cells are then washed 2 times with PBS and 30 ml of complete DMEM added to each flask. The cells are then allowed to incubate over night. The next day the cells are harvested by trypsinization and reseeded into 96 well plates.
(§4) Cells expressing the receptor of interest are plated into clear, flat-bottom, black-walled 96-well plates (Costar) at a density of 80,000–150,000 cells per well and allowed to incubate for 48 hr at 5% CO2, 37° C. The growth medium is aspirated and 100 μL of loading medium containing Fluo-3 dye is added to each well. The loading medium contains: 20 mM HEPES (Sigma), 0.1% BSA (Sigma), dye/pluronic acid mixture (e.g. 1 mM Fluo-3/AM (Molecular Probes) and 10% pluronic acid (Molecular Probes) mixed immediately before use), and 2.5 mM probenecid (Sigma)(prepared fresh). The cells are allowed to incubate for about 1 hour at 5% CO2, 37° C.
(§5) The compounds of interest are diluted in wash buffer (Hank's BSS (without phenol red), 20 mM HEPES, 2.5 mM probenecid) to a 4× final concentration and aliquoted into a clear v-bottom plate (Nunc). Following the dye incubation, the cells are washed 4 times to remove excess dye using a Denley plate washer. 100 μL final volume of wash buffer is then added to each cell well. Compounds are added to the cell plates and responses are measured using the FLIPR™ instrument. The data are then collected and analyzed using the FLIPR™ software and Graphpad Prism.
(§6) COS-7 cells were transiently transfected with SNORF62, SNORF72 or vector DNA (mock) as described in Materials and Methods.

[7] = target: T1, SNORF62; experiment: Inositol phosphate (IP) release in SNORF62-transfected COS-7 cells; type: cell-based; set-up: The SNORF62 cDNA codes for a protein of 426 amino acids; expressed in transfected cells; host or cells: COS-7 (transient, DEAE-dextran)
Experimental: Human SNORF62 receptor-mediated activation and human SNORF72 receptor-mediated activation of the inositol phosphate (IP) second messenger pathways were assessed by radiometric measurement of IP products.
For example, in a 96 well microplate format assay, COS-7 cells expressing the receptor of interest were plated at a density of 70,000 cells per well and allowed to incubate for 24 hours. The cells were then labeled with 0.5 μCi [^3H]myo-inositol overnight at 37° C., 5% CO2. Immediately before the assay, the medium was removed and replaced with 180 μL of Phosphate-Buffered Saline (PBS) containing 10 mM LiCl. The plates were then incubated for 20 min at 37° C., 5% CO2. Following the incubation, the cells were challenged with agonist (20 μl/well; 10× concentration) for 30 min at 37° C. The challenge was terminated by the addition of 100 μL of 5% v/v trichloroacetic acid, followed by incubation at 4° C. for greater than 30 minutes. Total IPs were isolated from the lysate by ion exchange chromatography. Briefly, the lysed contents of the wells were transferred to a Multiscreen HV filter plate (Millipore) containing Dowex AG1-X8 (200–400 mesh, formate form). The filter plates were prepared adding 100 μL of Dowex AG1-X8 suspension (50% v/v, water: resin) to each well. The filter plates were placed on a vacuum manifold to wash or elute the resin bed. Each well was first washed 2 times with 200 μl of 5 mM myo-inositol. Total [^3H]inositol phosphates were eluted with 75 μl of 1.2M ammonium formate/0.1M formic acid solution into 96-well plates. 200 μL of scintillation cocktail was added to each well, and the radioactivity was determined by liquid scintillation counting.

[8] = target: T2, SNORF72; experiment: Displacement of [125I]rat NMU-23 binding in SNORF72-transfected COS-7 membranes; details: SNORF72 membranes, displacement of [125I]rat NMU-23; read-out: average pKi (converted)
Experimental: (§7) The specifics of preparing such cell membranes may in some cases be determined by the nature of the ensuing assay but typically involve harvesting whole cells and disrupting the cell pellet by sonication in ice cold buffer (e.g. 20 mM Tris HCl, mM EDTA, pH 7.4 at 4° C.). The resulting crude cell lysate is cleared of cell debris by low speed centrifugation at 200×g for 5 min at 4° C. The cleared supernatant is then centrifuged at 40,000×g for 20 min at 4° C., and the resulting membrane pellet is washed by suspending in ice cold buffer and repeating the high speed centrifugation step. The final washed membrane pellet is resuspended in assay buffer. Protein concentrations are determined by the method of Bradford (1976) using bovine serum albumin as a standard. The membranes may be used immediately or frozen for later use.
(§8) Radioligand binding assays were performed by diluting membranes prepared from cells expressing the receptor in 50 mM Tris buffer (pH=7.4 at 0° C.) containing 0.1% bovine serum albumin (Sigma), aprotinin (0.005 mg/ml, Boehringer Mannheim) and bestatin (0.1 mM, Sigma) as protease inhibitors. The final protein concentration in the assay was 12–40 μg/ml. […] The bound ligand was separated from free by filtration through GF/B filters presoaked in 0.5% polyethyleneimine (PEI), using a Tomtec (Wallac) vacuum filtration device. After addition of Ready Safe (Beckman) scintillation fluid, bound radioactivity was quantitated using a Trilux (Wallac) scintillation counter (approximately 40% counting efficiency of bound counts). Data was fit to non-linear curves using GraphPad Prism.
(§9) In this manner, agonist or antagonist compounds that bind to the receptor may be identified as they inhibit the binding of the labeled ligand to the membrane protein of cells expressing the said receptor. Non-specific binding was defined as the amount of radioactivity remaining after incubation of membrane protein in the presence of 100 nM of the unlabeled peptide corresponding to the radioligand used. In equilibrium saturation binding assays membrane preparations or intact cells transfected with the receptor are incubated in the presence of increasing concentrations of the labeled compound to determine the binding affinity of the labeled ligand.

[9] = target: T1, SNORF62; experiment: Intracellular Ca2+ release (FLIPR) in SNORF62-transfected COS-7 cells; type: cell-based; set-up: The SNORF62 cDNA codes for a protein of 426 amino acids; expressed in transfected cells; host or cells: COS-7 (transient, DEAE-dextran); details: for maximum response / agonist efficacy at SNORF62: functional assay, data not shown
Experimental: as §3, §4, §5, §6

[10] = tested on: rat uterus membranes; details: binding site in rat uterus; cited from earlier work
[11] = target: T1, SNORF62; experiment: Displacement of [125I]rat NMU-23 binding in SNORF62-transfected COS-7 membranes; set-up: The SNORF62 cDNA codes for a protein of 426 amino acids; expressed in transfected cells; host or cells: COS-7 (transient, DEAE-dextran); details: SNORF62 membranes, displacement of [125I]rat NMU-23; read-out: average pKi (converted)
Experimental: as §7, §8, §9

[12] = cited from earlier work
[13] = tested on: rat adrenal gland slices; details: cited from earlier work
[14] = rats, single subcutaneous injection 6 μg/100 g body weight

Molecule | Bmax [1] | Bmax [2] | EC50 [3] [nM] | increases in intracellular Ca2+ [4] | basal corticosterone secretion [5] | stimulation of intracellular Ca2+ release [6] | agonist efficacy in IP release assay [7] | Ki [8] [nM] | maximum response / agonist efficacy at SNORF62 [9] | EC50 ([9]; stimulation of Ca2+ release, SNORF62-transfected COS-7 cells, n = 2-7 (Table 1A)) [nM] | IC50 [10] [nM] | Ki [11] [nM] | stress-evoked rise in corticosterone ([12]; rats treated for 6 days) | time during which ACTH blood concentrations are elevated [12, 14] [h] | time plasma corticosterone levels remain elevated [12, 14] [h] | adrenal weight and the number of cells in the zona reticularis ([12]; repeated administration) | basal corticosterone and pregnenolone steroid secretion [13]
[^125I]rat NMU-23: radioiodinated rat NMU-23 radioligand (NEN, specific activity 2200 Ci/mmole) (YKVNEYQGPVAPSGGFFLFRPRN-NH2; ends and bridges not checked; also: radioiodinated (125I), position not given here) | 16.5 pmol/mg protein and 9.9 pmol/mg protein | 8.0 pmol/mg protein and 8.2 pmol/mg protein |  |  |  |  |  |  |  |  |  |  |  |  |  |  | 
YKVNEYQGPVAPSGGFFLFRPRN-NH2 [rat NMU-23, YKVNEYQGPVAPSGGFFLFRPRN—NH2] |  |  | 0.2 | robust increases | directly decreased | stimulated | full agonists | 1 | full agonists | 2.1 ± 0.5 | 1 | 0.398 |  |  |  |  | 
CC(C)C[C@H](NC(=O)[C@H](Cc1ccccc1)NC(=O)[C@@H](N)Cc1ccc(O)cc1)C(=O)N[C@@H](Cc1ccccc1)C(=O)N[C@@H](CCCNC(=N)N)C(=O)N1CCC[C@H]1C(=O)N[C@@H](CCCNC(=N)N)C(=O)N[C@@H](CC(N)=O)C(N)=O [porcine NMU-8, Y F L F R P R N—NH2] |  |  |  | robust increases | without effect | stimulated | full agonists |  | full agonists |  | 60 |  | absent | 3 to 12 | 24 | decreased | markedly increased
